System: Gram positive and Gram negative bacteria
Assay: minimum inhibitory concentration of bismuth
Format: cell-based
Description: In particular, in one embodiment, antimicrobial lipophilic bismuth dimercaptopropanol nanoparticles (BisBAL NPs) may be used. In one embodiment, the bismuth concentration on the membrane surface may be approximately 0.437 g/m^2. In one embodiment, the toxic range of Bi^+3 concentration (minimum inhibitory concentration) for Gram positive and Gram negative bacteria is 15-16 μM. […] In one embodiment, the bismuth nanoparticles are roughly spherical and are approximately 20 nm wide. […] In another embodiment, other antibacterial nanoparticles are also contemplated, such as, but not limited to Zinc Oxide (ZnO), Copper Oxide (CuO), Iron Oxide (Fe2O3), and Silver (Ag).

`[Bi+3]` [Bi^+3] was tested, and the “toxic range of Bi^+3 concentration (minimum inhibitory concentration)” value was 15 to 16 µM.

Source: US11878276B2, “Nanobiocatalyst and nanobiocatalytic membrane” (University of Vermont and State Agricultural College, priority 2017, dated 2024)
